Source: paper PMC11492252 (Heliyon, 2024)

How the values were obtained:
[1] = test system: Escherichia coli (E. coli); assay: Antimicrobial MIC, broth microdilution; type: cell-based
[2] = test system: Candida albicans (C. albicans); assay: Antifungal MIC, broth microdilution; type: cell-based

## CC(=O)OCC1=C(C(=O)O)N2C(=O)[C@@H](NC(=O)Cc3cccs3)[C@H]2SC1 [Cephalothin]
[1]
  MIC: < 32 µg/mL

## C[C@@H]1C[C@@H]([C@H](O)CC2CC(=O)NC(=O)C2)C(=O)[C@@H](C)C1 [Cycloheximide]
[2]
  MIC: < 201 µg/mL
